Source: ChEMBL document CHEMBL1201862, “PubChem BioAssay data set” (2004)
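Interpolation was linear, between the two tested concentrations surrounding the appropriate level; five concentrations were tested over 48 hours in 96-well plates. Abbreviation: GI50, concentration required for 50% inhibition of growth.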 Active and inactive are the calls of the source. No stated cut-off is given here; in the data, active = GI50 up to about 1.1 µM and inactive = higher.

Experiments:
Experiment in all cases: inhibition of tumour cell growth, NCI panel, 48 h
DLD-1 = test system: DLD-1
XF498 = test system: XF498
KM-20L2 = test system: KM-20L2
SNB-78 = test system: SNB-78
DMS-273 = test system: DMS-273
M19-MEL = test system: M19-MEL
LXFL 529 = test system: LXFL 529
HOP-18 = test system: HOP-18
DMS-114 = test system: DMS-114

Measured: GI50

C=C1c2c(cc3c(c2O)c(=O)c2ccccc2n3C)OC1(C)C
inactive: DLD-1 > 100 µM | XF498 28.6 µM | KM-20L2 8.71 µM | SNB-78 37.2 µM | DMS-273 > 100 µM | M19-MEL > 100 µM | LXFL 529 > 100 µM | HOP-18 9.79 µM | DMS-114 99.8 µM

O=C1CCCC(=O)N1CCc1c[nH]c2ccccc12
inactive: DLD-1 > 100 µM | XF498 > 100 µM | KM-20L2 > 100 µM | SNB-78 > 100 µM | DMS-273 > 100 µM | M19-MEL > 100 µM | LXFL 529 > 100 µM | DMS-114 > 100 µM

O=C(NC(Cc1ccc(I)cc1)C(=O)O)c1ccc(I)cc1 (stereo unspecified)
inactive: DLD-1 > 100 µM | XF498 > 66.4 µM | KM-20L2 > 94.8 µM | SNB-78 > 89.3 µM | DMS-273 94.8 µM | M19-MEL 72.3 µM | HOP-18 > 100 µM | DMS-114 35.8 µM

COc1ccccc1C1C(Cl)C(=O)N1n1cnc2ccccc2c1=O (stereo unspecified)
inactive: DLD-1 > 100 µM | XF498 > 100 µM | KM-20L2 > 100 µM | SNB-78 > 100 µM | DMS-273 > 100 µM | M19-MEL > 100 µM | LXFL 529 > 100 µM | HOP-18 39.6 µM | DMS-114 > 100 µM

COc1cc(C2C(C(=O)O)=C(COC(C)=O)Oc3cc4c(cc32)OCO4)cc(OC)c1OC (stereo unspecified)
inactive: XF498 > 100 µM | KM-20L2 > 100 µM | SNB-78 > 100 µM | DMS-273 > 100 µM | M19-MEL > 100 µM | HOP-18 > 100 µM | DMS-114 > 100 µM

c1c2c(cc(-n3nnc4c3CCCCCC4)c1-n1nnc3c1CCCCCC3)CCCCCC2
inactive: XF498 1.9 µM | SNB-78 13.6 µM | DMS-273 2.99 µM | M19-MEL 8.77 µM

COc1ccc(/C=C2\CCNC2=O)cc1
inactive: DLD-1 > 100 µM | XF498 > 100 µM | KM-20L2 > 100 µM | SNB-78 > 100 µM | DMS-273 > 100 µM | M19-MEL > 100 µM | HOP-18 > 100 µM | DMS-114 > 100 µM

CC(C)(C)N1C(C(=O)c2ccccc2)C1c1ccccc1 (stereo unspecified)
inactive: DLD-1 > 100 µM | SNB-78 > 100 µM | DMS-273 > 100 µM | M19-MEL > 100 µM | LXFL 529 > 100 µM

CC(NC(=O)C(C)NC(=O)C(N)CCP(C)(=O)O)C(=O)O (stereo unspecified)
inactive: DLD-1 > 100 µM | XF498 > 100 µM | KM-20L2 > 100 µM | SNB-78 > 100 µM | DMS-273 > 100 µM | M19-MEL > 100 µM | HOP-18 > 100 µM

Cc1nc2c(sc(=S)n2-c2ccccc2)c(=O)[nH]1
inactive: DLD-1 > 100 µM | LXFL 529 > 100 µM | HOP-18 > 100 µM

CCCCCCCCC(O)c1ccc(/C=C\C(O)CCCC(=O)O)s1 (stereo unspecified)
inactive: DLD-1 > 100 µM | XF498 > 100 µM | KM-20L2 > 100 µM | SNB-78 > 100 µM | DMS-273 > 100 µM | M19-MEL > 100 µM | LXFL 529 > 100 µM | HOP-18 > 100 µM | DMS-114 > 100 µM

COc1cc(NC(C)CCCN)c2ncccc2c1 (stereo unspecified) [PRIMAQUINE PHOSPHATE]
inactive: DLD-1 76.6 µM | XF498 35 µM | KM-20L2 57.5 µM | SNB-78 > 100 µM | DMS-273 > 100 µM | M19-MEL 47.5 µM | LXFL 529 60.7 µM | HOP-18 > 36.1 µM | DMS-114 37.7 µM
